For assay [1], the target named is T1, phosphorylated EGFR (pEGFR) (Homo sapiens, UniProt P00533).
T1 construct: endogenous in cells; host or cells: A431
Description: Detection of phosphorylated EGFR (pEGFR) in EGF-stimulated A431 cells (AlphaLISA). Type of assay: cell-based. As to conditions: A431 cells (10% FBS), 4 hours with compound, then EGF 30 ng/mL for 10 minutes. On the procedure: Enzyme-linked immunosorbent assays (ELISA) were performed to measure phosphorylated EGFR levels using A431 cells (10% FBS). A431 (1.0*10^4 cells/40 μl/well) cells were seeded in 384 well. Compounds were dissolved in DMSO, serially diluted in DMSO and then were added, mixed, and incubated for 4 hours at 37° C., 5% CO2. Following the 4-hours incubation, cells were stimulated for 10 minutes with EGF (Invitrogen, cat #PHG0311) at a final concentration of 30 ng/mL in the incubator. The media was aspirated and cells were lysed in 10 μL lysis buffer with protease and phosphatase inhibitors (PerkinElmer, cat #ALSU-PEGFR-A50K). The plates were placed on a shaker for 5 minutes and then incubated for 30 min at 4° C. for complete lysis. The lysate was transferred to an Optiplate (Perkin Elmer, cat #6007290).
Acceptor mix (PerkinElmer, cat #ALSU-PEGFR-A50K) was prepared just before use and 5 μL was dispensed to all the wells, followed by a 1.5-2 h incubation at room temperature in dark. The donor mix (PerkinElmer, cat #ALSU-PEGFR-A50K) was prepared under low light conditions prior to use and […] of donor mix was added to all the wells under subdued lighting or green filters. The plates were placed on a shaker for 5 min, sealed, and incubated overnight at room temperature in dark. Plates were read on the Envision (PerkinElmer) using standard AlphaLISA settings.
The percentage of inhibition on EGFR phosphorylation was calculated following equation: % Inhibition=100×(LumHC−LumSample)/(LumHC−LumLC). The low and high controls (LC/HC) are generated from lysate from wells with cells treated with DMSO or […] Staurosporine (BioAustralis, cat #BIA-S1086), […]. IC50 values were calculated by fitting the Curve using XLfit (v5.3.1.3), equation 201: Y=Bottom+(Top−Bottom)/(1+10^((LogIC50−X)*HillSlope)).

Assay [2] deals with T2, phosphorylated ERBB2 (pERBB2) (Homo sapiens, UniProt P04626).
T2 construct: endogenous in cells; host or cells: BT-474
T2 sequence (P04626 23-1255): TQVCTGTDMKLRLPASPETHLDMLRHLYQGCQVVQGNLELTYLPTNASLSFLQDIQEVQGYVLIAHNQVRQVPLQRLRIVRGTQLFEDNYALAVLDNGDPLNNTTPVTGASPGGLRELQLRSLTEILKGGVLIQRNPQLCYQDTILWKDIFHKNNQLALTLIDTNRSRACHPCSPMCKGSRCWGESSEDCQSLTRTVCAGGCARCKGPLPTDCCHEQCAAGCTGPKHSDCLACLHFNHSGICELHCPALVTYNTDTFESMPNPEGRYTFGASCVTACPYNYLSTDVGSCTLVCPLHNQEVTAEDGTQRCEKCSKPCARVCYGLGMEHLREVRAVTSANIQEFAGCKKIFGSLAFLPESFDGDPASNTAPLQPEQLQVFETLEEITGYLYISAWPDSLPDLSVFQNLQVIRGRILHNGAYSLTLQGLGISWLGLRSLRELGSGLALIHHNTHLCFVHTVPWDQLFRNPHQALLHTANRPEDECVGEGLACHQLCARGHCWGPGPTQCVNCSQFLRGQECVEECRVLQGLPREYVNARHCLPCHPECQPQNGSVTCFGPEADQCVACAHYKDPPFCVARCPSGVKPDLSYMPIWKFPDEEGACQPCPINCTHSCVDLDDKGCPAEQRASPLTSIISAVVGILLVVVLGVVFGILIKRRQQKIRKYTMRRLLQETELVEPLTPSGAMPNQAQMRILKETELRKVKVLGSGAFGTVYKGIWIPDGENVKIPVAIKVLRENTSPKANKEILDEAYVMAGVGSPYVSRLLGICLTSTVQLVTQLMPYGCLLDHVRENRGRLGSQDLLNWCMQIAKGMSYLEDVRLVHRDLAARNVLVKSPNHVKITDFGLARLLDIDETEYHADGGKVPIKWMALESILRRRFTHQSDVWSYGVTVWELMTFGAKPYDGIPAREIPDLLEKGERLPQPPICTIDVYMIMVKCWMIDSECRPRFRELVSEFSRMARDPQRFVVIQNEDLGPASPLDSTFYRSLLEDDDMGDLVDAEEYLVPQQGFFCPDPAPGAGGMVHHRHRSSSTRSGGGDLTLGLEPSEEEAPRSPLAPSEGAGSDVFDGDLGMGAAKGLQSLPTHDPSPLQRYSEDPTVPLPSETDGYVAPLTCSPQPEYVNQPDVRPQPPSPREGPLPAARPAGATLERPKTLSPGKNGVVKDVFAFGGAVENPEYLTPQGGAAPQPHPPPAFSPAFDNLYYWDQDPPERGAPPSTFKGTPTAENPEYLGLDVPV
As to the kind of experiment: Detection of phosphorylated ERBB2 (pERBB2) by ELISA in BT-474 cells. To be noted: four hours incubation with compound, OD 450 nm. The format is cell-based. On the procedure: BT-474 cells were seeded into a 96-well at 2.0*10^4 cells/100 μl/well.
Compounds were dissolved and serially diluted in DMSO. The compounds were then were added, mixed, and incubated for four hours at 37° C., 5% CO2. Compounds were added using four-fold dilutions at final concentrations ranging from 10 μM to 0.01 nM.
Following the four hour incubation with compounds, cell lysates were prepared. Plates were centrifuged for 5 min at 3000 RPM, and supernatant was removed from each well. Cells were washed 3 times by resuspension in 150 μl PBS, followed by centrifugation and removal of the supernatant, as above. […] Cells were incubated with lysis buffer for 1 hour at 4° C., and then stored at −80° C.
Enzyme-linked immunosorbent assays (ELISA) were performed to measure phosphorylated ERBB2 levels. […] The next day, plates were washed with PBS+0.05% Tween20 (PBST). 150 μl of 5% BSA blocking solution was added for 1 hour at room temperature, with shaking. Plates were washed with PBST. Cell lysates were thawed and 100 μl of lysate was added to the ELISA plate. The plates were incubated for 2 hours at room temperature, with shaking. […] Plates were incubated for 1 hour at room temperature, with shaking. Plates were then washed with PBST, and 100 μl TMB substrate solution (R&D Systems, cat #DY999) was added. Plate were incubated in the dark for 20 minutes at room temperature. 50 μl of Stop solution (R&D Systems, cat #DY994) (50 μl) was added to each well and mixed.
Optical density at 450 nm was read on an EnSpire plate reader (Perkin Elmer). The remaining kinase activity by calculated using the following formula: % Relative activity=100×(A450sample−A450LC)/(A450HC−A450LC). The low and high control values (“LC” and “HC”) were generated from lysate from wells without cells or with cells treated with 0.1% DMSO, respectively.
(An ELISA detects its analyte on a solid surface through an enzyme-linked reagent.)

The target in assay [3] is T3, Ba/F3 ERBB2 A775_G776insYVMA (Homo sapiens, UniProt P04626, DUP772-775, cells depend on it).
T3 construct: Ba/F3 cell lines were engineered to express human ERBB2 or EGFR kinases, rendering the cells IL-3 independent
T3 sequence (P04626 with tags, fused parts or gaps DUP772-775): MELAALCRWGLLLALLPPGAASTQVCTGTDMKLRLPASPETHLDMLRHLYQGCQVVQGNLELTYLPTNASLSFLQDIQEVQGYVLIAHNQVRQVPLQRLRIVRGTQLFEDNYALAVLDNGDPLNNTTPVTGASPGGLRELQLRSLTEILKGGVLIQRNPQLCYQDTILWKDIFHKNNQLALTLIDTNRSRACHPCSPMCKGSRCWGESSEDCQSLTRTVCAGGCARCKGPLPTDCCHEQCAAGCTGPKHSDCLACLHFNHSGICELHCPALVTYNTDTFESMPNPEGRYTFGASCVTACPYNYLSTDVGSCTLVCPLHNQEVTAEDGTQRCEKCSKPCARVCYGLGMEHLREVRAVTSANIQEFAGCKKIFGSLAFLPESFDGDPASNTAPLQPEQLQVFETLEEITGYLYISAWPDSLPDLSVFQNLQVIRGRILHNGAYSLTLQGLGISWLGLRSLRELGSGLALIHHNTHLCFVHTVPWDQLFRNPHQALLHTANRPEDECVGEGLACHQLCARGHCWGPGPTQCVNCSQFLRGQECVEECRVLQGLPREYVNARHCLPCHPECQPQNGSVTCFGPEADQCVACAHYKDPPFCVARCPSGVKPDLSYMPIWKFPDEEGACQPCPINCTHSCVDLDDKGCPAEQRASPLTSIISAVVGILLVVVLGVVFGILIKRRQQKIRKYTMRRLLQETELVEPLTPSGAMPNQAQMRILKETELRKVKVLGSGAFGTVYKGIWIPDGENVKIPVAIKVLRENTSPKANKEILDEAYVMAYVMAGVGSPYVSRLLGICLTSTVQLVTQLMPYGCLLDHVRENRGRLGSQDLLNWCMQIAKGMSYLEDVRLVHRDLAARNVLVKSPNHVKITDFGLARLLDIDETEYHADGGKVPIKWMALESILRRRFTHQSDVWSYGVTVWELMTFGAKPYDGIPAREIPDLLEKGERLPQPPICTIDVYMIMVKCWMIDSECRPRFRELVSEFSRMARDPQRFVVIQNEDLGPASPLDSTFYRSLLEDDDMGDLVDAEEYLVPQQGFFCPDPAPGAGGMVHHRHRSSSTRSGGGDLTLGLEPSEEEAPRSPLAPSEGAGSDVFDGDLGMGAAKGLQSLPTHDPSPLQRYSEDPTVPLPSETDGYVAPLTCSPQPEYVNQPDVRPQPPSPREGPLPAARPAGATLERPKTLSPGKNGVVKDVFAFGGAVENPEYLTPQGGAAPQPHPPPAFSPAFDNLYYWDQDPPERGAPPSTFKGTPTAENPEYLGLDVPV
Description: Cell viability assay (CellTiter Glo). Type of assay: cell-based, mouse. To be noted: 72 hours; 300 cells per well, 384-well plates (Table B5); read-out: Cell Line: Ba/F3 ERBB2 A775 G776ins YVMA IC50. As to the method:
Cells were treated with compounds, and cell viability was measured as a metric of kinase inhibition.
The Ba/F3 cell line is IL-3-dependent mouse cell line derived from the C3H mouse strain. Ba/F3 cell lines were engineered to express human ERBB2 or EGFR kinases, rendering the cells IL-3 independent. The lines were generated via retroviral transduction utilizing a Moloney murine leukemia virus (MMLV) promoter, and constructs are stably integrated into the cell genome.
Similarly, Ba/F3 cell lines engineered to express EGFR, ERBB2, or ERBB2 mutants were grown, harvested, counted and seeded at 3000 cells per well in 96-well plates for the data sets shown in Tables B3-B4, and seeded at 300 cells per well in 384-well plates for the data set shown in Table B5. A subset of wells contained media only (low control, “LC”).
Table B2 provides the growth media and number of cells seeded per well for the each cell line.
Compounds were dissolved in DMSO and serially diluted. Serially-diluted compound or a DMSO only control (high control, “HC”) was added to the plated cells in each well. […] The final proportion of DMSO never exceeded 0.1%.
Plates were placed in a 37° C., 5% CO2 incubator for 72 hours. Plates were then removed from the incubator and equilibrated for 15 minutes at room temperature. 40 IA of CellTiter Glo reagent (Promega) was added to measure the relative level of metabolically active cells by quantifying intracellular ATP concentrations. Plates were incubated for 30 minutes at room temperature, and luminescence was measured. Percent viability was normalized to a vehicle control only using the following formula: % viability=100×(LumSample−LumLC) (LumHC−LumLC). Graphical curves were fitted using a nonlinear regression model with a sigmoidal dose response.

The record followed here is patent publication US20230265098A1, “ALKYNE QUINAZOLINE DERIVATIVES AS INHIBITORS OF ERBB2” (EnLiven Therapeutics, Inc., priority 2020, published 2023).

Molecules are shown by their SMILES.

T1 sequence (P00533 25-1210): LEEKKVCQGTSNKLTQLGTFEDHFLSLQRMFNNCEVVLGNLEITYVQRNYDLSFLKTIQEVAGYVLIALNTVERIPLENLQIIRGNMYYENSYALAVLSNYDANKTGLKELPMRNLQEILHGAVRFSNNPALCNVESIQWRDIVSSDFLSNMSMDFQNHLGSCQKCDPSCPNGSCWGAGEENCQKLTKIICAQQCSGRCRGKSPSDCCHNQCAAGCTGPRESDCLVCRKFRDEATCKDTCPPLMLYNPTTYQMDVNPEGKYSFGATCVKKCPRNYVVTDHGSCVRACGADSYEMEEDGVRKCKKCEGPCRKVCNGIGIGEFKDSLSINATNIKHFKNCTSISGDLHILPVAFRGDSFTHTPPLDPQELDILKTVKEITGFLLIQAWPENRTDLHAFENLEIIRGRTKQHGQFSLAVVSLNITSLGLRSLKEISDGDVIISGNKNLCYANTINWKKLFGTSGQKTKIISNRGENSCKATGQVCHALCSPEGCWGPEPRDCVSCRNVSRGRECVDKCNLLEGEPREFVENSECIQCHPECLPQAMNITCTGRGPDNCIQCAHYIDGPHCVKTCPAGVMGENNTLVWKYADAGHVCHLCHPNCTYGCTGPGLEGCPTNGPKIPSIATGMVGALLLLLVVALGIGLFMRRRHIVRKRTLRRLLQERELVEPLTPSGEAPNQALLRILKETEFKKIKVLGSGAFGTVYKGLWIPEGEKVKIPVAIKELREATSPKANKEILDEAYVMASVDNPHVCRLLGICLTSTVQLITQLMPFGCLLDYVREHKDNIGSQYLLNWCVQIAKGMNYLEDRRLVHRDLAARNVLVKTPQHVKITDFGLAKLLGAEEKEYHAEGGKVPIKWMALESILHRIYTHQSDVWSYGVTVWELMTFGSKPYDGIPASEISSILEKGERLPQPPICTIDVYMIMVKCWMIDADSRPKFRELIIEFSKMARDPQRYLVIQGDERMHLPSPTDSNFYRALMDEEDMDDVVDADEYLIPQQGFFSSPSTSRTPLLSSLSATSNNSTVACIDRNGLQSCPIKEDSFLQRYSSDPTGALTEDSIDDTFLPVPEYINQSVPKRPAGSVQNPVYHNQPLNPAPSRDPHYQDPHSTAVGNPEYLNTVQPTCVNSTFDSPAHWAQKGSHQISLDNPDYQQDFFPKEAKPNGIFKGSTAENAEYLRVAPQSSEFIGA

Regarding `CNCCOc1cc2ncnc(Nc3ccc(Oc4ccn5ncnc5c4)c(C)c3)c2cc1NC(=O)C#CC1CC1` [Compound 187, 3-cyclopropyl-N-{4-[(3-methyl-4-{[1,2,4]triazolo[1,5-a]pyridin-7-yloxy}phenyl)amino]-7-[2-(methylamino)ethoxy]quinazolin-6-yl}prop-2-ynamide], the values for the IC50 in assay [1] and in assay [2] were 434 nM and 30.5 nM, respectively. Also, the GI50 in assay [3] came to 19.6 nM.
The matching figures for `CC#CC(=O)Nc1cc2c(Nc3ccc(Oc4ccn5ncnc5c4)c(F)c3)ncnc2cc1OCCN(C)C` [Compound 198, N-(4-((4-([1,2,4]triazolo[1,5-a]pyridin-7-yloxy)-3-fluorophenyl)amino)-7-(2-(dimethylamino)ethoxy)quinazolin-6-yl)but-2-ynamide]: 508 nM, 6.23 nM and 11.5 nM.
The matching figures for `CC#CC(=O)Nc1cc2c(Nc3ccc(Oc4ccn5ncnc5c4)c(C)c3)ncnc2cc1OCCN1CCCC1` [Compound 192, N-{4-[(3-methyl-4-{[1,2,4]triazolo[1,5-a]pyridin-7-yloxy}phenyl)amino]-7-[2-(pyrrolidin-1-yl)ethoxy]quinazolin-6-yl}but-2-ynamide]: 1350 nM, 9.51 nM and 11 nM.
The matching figures for `CC#CC(=O)Nc1c(OCCCN(C)C)cc2ncnc(Nc3ccc(Cc4ccn5ncnc5c4)c(C)c3)c2c1F` [Compound 209, N-{7-[3-(dimethylamino)propoxy]-5-fluoro-4-[(3-methyl-4-{[1,2,4]triazolo[1,5-a]pyridin-7-ylmethyl}phenyl)amino]quinazolin-6-yl}but-2-ynamide]: greater than 10000 nM, 1250 nM and greater than 500 nM.
On to `CC#CC(=O)Nc1ccc2ncnc(Nc3cc(C)c(Oc4ccn5ncnc5c4)cc3F)c2c1F` [Compound 210, N-{5-fluoro-4-[(2-fluoro-5-methyl-4-{[1,2,4]triazolo[1,5-a]pyridin-7-yloxy}phenyl)amino]quinazolin-6-yl}but-2-ynamide], for which the results for the half-maximal inhibitory concentration (IC50) in assay [1] and in assay [2] were 1850 nM and 12.1 nM, respectively. Besides, in assay [3], the GI50 stood at 10.8 nM.
`CC#CC(=O)Nc1cc2c(Nc3ccc(Oc4ccn5ncnc5c4)c(C)c3)ncnc2cc1OCCNC` [Compound 194, N-{4-[(3-methyl-4-{[1,2,4]triazolo[1,5-a]pyridin-7-yloxy}phenyl)amino]-7-[2-(methylamino)ethoxy]quinazolin-6-yl}but-2-ynamide]: the values for the IC50 in assay [1] and in assay [2] were 804 nM and 18.2 nM, respectively. In addition, the GI50 in assay [3] was 32 nM.
The matching figures for `CC#CC(=O)Nc1cc2c(Nc3ccc(Oc4cnn(C)c(=O)c4)c(C)c3)ncnc2cc1OCCN(C)C` [Compound 201, N-{7-[2-(dimethylamino)ethoxy]-4-({3-methyl-4-[(1-methyl-6-oxopyridazin-4-yl)oxy]phenyl}amino)quinazolin-6-yl}but-2-ynamide]: 1970 nM, 153 nM and 346 nM.
The corresponding values for `Cc1cc(Nc2ncnc3ccc(NC(=O)C#CC4(C)CC4)cc23)ccc1Oc1ccn2ncnc2c1` [Compound 185, N-{4-[(3-methyl-4-{[1,2,4]triazolo[1,5-a]pyridin-7-yloxy}phenyl)amino]quinazolin-6-yl}-3-(1-methylcyclopropyl)prop-2-ynamide] are 680 nM, 17.3 nM and 5.11 nM.
